Assay results reported in PubChem BioAssay AID2060493 (Molecular Pharmacology Branch, DTP, NCI, 2025).

Tested on: 616215-338-R-J1-PDC tumor spheroids, viability
Assay: Anticancer human tumor 616215-338-R-J1-PDC patient-derived colon adenocarcinoma cell line growth inhibition [GQUAD]
Settings: spheroids with HUVEC and MSC; for IC50: curve of first compound; for viability, T/C: stronger effect = lower value; active = viability on the fitted dose curve at most 10% of control; inactive = the rest
How it was run: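 Viability of tumor cells grown as complex spheroids with endothelial and stromal cells, exposed to drug combinations. Top concentration at or near clinical Cmax (else 10 microM), diluted in half-log increments.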

[1] = second compound 0.0316 µM, first compound 0.0316 µM
[2] = second compound 0.0316 µM, first compound 0.1 µM
[3] = second compound 0.0316 µM, first compound 0.316 µM
[4] = second compound 0.0316 µM, first compound 1 µM
[5] = second compound 0.0316 µM, first compound 3.16 µM
[6] = second compound 0.0316 µM, first compound 10 µM
[7] = second compound 0.1 µM, first compound 0.0316 µM
[8] = second compound 0.1 µM, first compound 0.1 µM
[9] = second compound 0.1 µM, first compound 0.316 µM
[10] = second compound 0.1 µM, first compound 1 µM
[11] = second compound 0.1 µM, first compound 3.16 µM
[12] = second compound 0.1 µM, first compound 10 µM
[13] = second compound 0.316 µM, first compound 0.0316 µM
[14] = second compound 0.316 µM, first compound 0.1 µM
[15] = second compound 0.316 µM, first compound 0.316 µM
[16] = second compound 0.316 µM, first compound 1 µM
[17] = second compound 0.316 µM, first compound 3.16 µM
[18] = second compound 0.316 µM, first compound 10 µM
[19] = second compound 1 µM, first compound 0.0316 µM
[20] = second compound 1 µM, first compound 0.1 µM
[21] = second compound 1 µM, first compound 0.316 µM
[22] = second compound 1 µM, first compound 1 µM
[23] = second compound 1 µM, first compound 3.16 µM
[24] = second compound 1 µM, first compound 10 µM
[25] = second compound 3.16 µM, first compound 0.0316 µM
[26] = second compound 3.16 µM, first compound 0.1 µM
[27] = second compound 3.16 µM, first compound 0.316 µM
[28] = second compound 3.16 µM, first compound 1 µM
[29] = second compound 3.16 µM, first compound 3.16 µM
[30] = second compound 3.16 µM, first compound 10 µM
[31] = second compound 10 µM, first compound 0.0316 µM
[32] = second compound 10 µM, first compound 0.1 µM
[33] = second compound 10 µM, first compound 0.316 µM
[34] = second compound 10 µM, first compound 1 µM
[35] = second compound 10 µM, first compound 3.16 µM
[36] = second compound 10 µM, first compound 10 µM
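Note: spheroids exposed to agents for 7 days before readout.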
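Throughout, for viability, T/C: percent viability relative to DMSO vehicle control wells taken as 100%.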

COc1cccc2c1C(=O)c1c(O)c3c(c(O)c1C2=O)CC(O)(C(=O)CO)CC3OC1CC(N)C(O)C(C)O1 (centres undefined) + Cc1[nH]c2ccc(F)cc2c1-c1nc2c3cccnc3c3ncccc3c2[nH]1
506 nM: IC50 (second compound 3.16 µM)
504 nM: IC50 (second compound 0.1 µM)
623 nM: IC50 (second compound 10 µM)
937 nM: IC50 (second compound 1 µM)
554 nM: IC50 (second compound 0.316 µM)
inactive: viability, T/C [1] 108% | viability, T/C [2] 88.2% | viability, T/C [3] 58.6% | viability, T/C [4] 39.3% | viability, T/C [5] 38.8% | viability, T/C [7] 96.8% | viability, T/C [8] 92.8% | viability, T/C [9] 46.3% | viability, T/C [10] 41.5% | viability, T/C [11] 21.6% | viability, T/C [13] 105% | viability, T/C [14] 75.5% | viability, T/C [15] 53.7% | viability, T/C [16] 49% | viability, T/C [17] 18.7% | viability, T/C [19] 91.7% | viability, T/C [20] 91.2% | viability, T/C [21] 71.6% | viability, T/C [22] 44.5% | viability, T/C [23] 27.6% | viability, T/C [25] 89.2% | viability, T/C [26] 84.6% | viability, T/C [27] 50% | viability, T/C [28] 39% | viability, T/C [29] 23.4% | viability, T/C [31] 103% | viability, T/C [32] 76.2% | viability, T/C [33] 55.6% | viability, T/C [34] 54.8% | viability, T/C [35] 20.1%
active: viability, T/C [6] 2.47% | viability, T/C [12] 4% | viability, T/C [18] 2.01% | viability, T/C [24] 2.3% | viability, T/C [30] 1.17% | viability, T/C [36] 1.64%
771 nM: IC50 (second compound 0.0316 µM)

CC1COCCN1c1cc(-c2ccnn2C)c2ccnc(-c3ccn[nH]3)c2n1 (centres undefined) + CN(C)c1ccc(Nc2c3ccc(NC(=O)CCN4CCCC4)cc3nc3cc(NC(=O)CCN4CCCC4)ccc23)cc1
inactive: viability, T/C [1] 99.1% | viability, T/C [2] 61.8% | viability, T/C [3] 31.1% | viability, T/C [4] 25.6% | viability, T/C [5] 18.4% | viability, T/C [6] 21.6% | viability, T/C [7] 94.4% | viability, T/C [8] 58.5% | viability, T/C [9] 33.5% | viability, T/C [10] 21.2% | viability, T/C [11] 21.6% | viability, T/C [12] 22.4% | viability, T/C [13] 93% | viability, T/C [14] 65.4% | viability, T/C [15] 29.1% | viability, T/C [16] 23.1% | viability, T/C [17] 20.7% | viability, T/C [18] 18.6% | viability, T/C [19] 90.1% | viability, T/C [20] 55.5% | viability, T/C [21] 38.1% | viability, T/C [22] 22.6% | viability, T/C [23] 18.8% | viability, T/C [24] 25.7% | viability, T/C [25] 91.7% | viability, T/C [26] 55.6% | viability, T/C [27] 30.2% | viability, T/C [28] 23.8% | viability, T/C [29] 22.2% | viability, T/C [30] 16.7% | viability, T/C [31] 88.4% | viability, T/C [32] 53.8% | viability, T/C [33] 35.8% | viability, T/C [34] 24.2% | viability, T/C [35] 19.7% | viability, T/C [36] 18.5%
157 nM: IC50 (second compound 0.0316 µM)
147 nM: IC50 (second compound 0.1 µM)
164 nM: IC50 (second compound 0.316 µM)
129 nM: IC50 (second compound 3.16 µM) | IC50 (second compound 10 µM)
142 nM: IC50 (second compound 1 µM)
